Experiment [1] addresses T1, Hyaluronidase-1 (Homo sapiens, UniProt Q12794).
T1 sequence (Q12794 whole entry): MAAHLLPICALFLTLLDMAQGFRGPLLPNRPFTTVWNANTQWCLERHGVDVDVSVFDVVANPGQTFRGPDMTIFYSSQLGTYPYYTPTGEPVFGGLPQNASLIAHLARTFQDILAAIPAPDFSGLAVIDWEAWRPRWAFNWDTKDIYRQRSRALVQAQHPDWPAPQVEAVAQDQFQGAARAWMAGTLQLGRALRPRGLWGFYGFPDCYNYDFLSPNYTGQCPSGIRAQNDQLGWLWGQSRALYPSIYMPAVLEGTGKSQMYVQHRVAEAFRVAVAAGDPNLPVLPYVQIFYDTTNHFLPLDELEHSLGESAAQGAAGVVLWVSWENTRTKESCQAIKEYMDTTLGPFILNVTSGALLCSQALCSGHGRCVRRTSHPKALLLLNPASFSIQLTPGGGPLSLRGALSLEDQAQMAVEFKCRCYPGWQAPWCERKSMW
As to the kind of experiment: Stains-all Assay. The conditions noted are these: pH 7; 37 °C. The text has this:
Stains-all assay were used to test inhibitors at pH of 7.

Experiment [2] addresses T1, Hyaluronidase-1. As to the kind of experiment: Morgan-Elson Assay. The conditions noted are these: pH 3.5; 37 °C. The text has this:
Morgan-elson assay were used to test inhibitors at pH of 3.5.

One may read the IC50 as the concentration that gives 50% inhibition.

Consider `O=C(NCc1ccccc1)c1cc2ccccc2n1Cc1ccccc1` [N-Substituted indole-2- and 3-carboxamide derivative, 1], for which the IC50 in experiment [1] came to 40.3 µM; in experiment [2], 78.2 µM.

Regarding `O=C(NCc1ccc(Cl)cc1)c1cc2ccccc2n1Cc1ccccc1` [N-Substituted indole-2- and 3-carboxamide derivative, 2], the IC50 in experiment [1] is 33.2 µM; in experiment [2], 64.3 µM.

In turn, `O=C(NCc1ccc(F)cc1)c1cc2ccccc2n1Cc1ccccc1` [N-Substituted indole-2- and 3-carboxamide derivative, 3] showed an IC50 in experiment [1] of 27.2 µM.

Take `O=C(NCc1ccccc1)c1cc2ccccc2n1Cc1ccc(F)cc1` [N-Substituted indole-2- and 3-carboxamide derivative, 6]: the IC50 in experiment [1] came to 41.1 µM.

On to `O=C(NCc1ccc(Cl)cc1)c1cc2ccccc2n1Cc1ccc(F)cc1` [N-Substituted indole-2- and 3-carboxamide derivative, 7], for which inhibition in experiment [1] was half-maximal at 33 µM (IC50).

With `O=C(NCc1ccc(F)cc1)c1cc2ccccc2n1Cc1ccc(F)cc1` [N-Substituted indole-2- and 3-carboxamide derivative, 8], the IC50 in experiment [1] is 29.9 µM.

In the case of `O=C(NCc1ccccc1)c1cn(Cc2ccc(F)cc2)c2ccccc12` [N-Substituted indole-2- and 3-carboxamide derivative, 16], the IC50 was found to be 33 µM in experiment [1] and 61.6 µM in experiment [2].

`O=C(NCc1ccc(Cl)cc1)c1cn(Cc2ccc(F)cc2)c2ccccc12` [N-Substituted indole-2- and 3-carboxamide derivative, 17]: the IC50 in experiment [1] worked out at 33.7 µM; in experiment [2], 72.9 µM.

With `O=C(NCc1ccc(F)cc1)c1cn(Cc2ccc(F)cc2)c2ccccc12` [N-Substituted indole-2- and 3-carboxamide derivative, 18], the 50% inhibitory concentration (IC50) in experiment [1] turned out to be 25.7 µM; in experiment [2], 56.7 µM.

Source of the values: BindingDB's records for doi:10.1111/j.1747-0285.2007.00590.x (2007).
